These results are taken from ChEMBL document CHEMBL1143492, “Design, synthesis, and bioavailability evaluation of coumarin-based prodrug of meptazinol” (Bioorg Med Chem Lett, 2005).

In general, AUC refers to the area under the concentration-time curve, a measure of exposure.

This series is described as follows: Area under curve was determined after intravenous administration (29.7 umol/kg) in rat. Particulars: in vivo. The class given is ADME.

On to `CCC1(c2cccc(O)c2)CCCCN(C)C1` (stereo unspecified) [MEPTAZINOL], for which the AUC turned out to be 1990 ng·h/mL.
